Experiments:
U87MG cells [1] = assay: AO/EtBr staining for cell death; type: cell-based, human; details: IC50 concentration, after irradiation
Method: (§1) The rapid mitochondrial disruption often shifts the balance toward irreversible cell death pathways. […] In this regard, acridine orange/ethidium bromide (AO/EtBr) staining was performed to detect cell death. […]
(§2) Acridine Orange/Ethidium Bromide (AO/EtBr) staining for cell death
(§3) Dual acridine orange/ethidium bromide (AO/EtBr) staining was performed to discriminate live, early apoptotic and/or necrotic cells on the basis of membrane permeability.1,2 U87MG and U118MG cells were seeded in 24-well plates at a density of 5 × 10⁴ cells/well and treated with the IC₅₀ concentrations of the photosensitizers NSeMorph and NSeAze. After irradiation, cells were rested at 37 °C for 20 minutes, followed by staining with AO (2.5 µg/ml) and EtBr (2.5 µg/ml) in serum-free DMEM […]
(§4) under dark conditions for an additional 20-30 minutes. Subsequently, cells were washed with 1X PBS, and confocal images were taken at 500/525 nm (ex/em) for AO […]
(§5) Ta b l e S3. Comparison of recently reported PSs for the treatment of glioblastoma multiforme.
(§6) Photosensitizer Abs* Mwt IC (μM) Cell Line PI Ref. […]

U118MG cells [2] = assay: AO/EtBr staining for cell death; type: cell-based, human; details: IC50 concentration, after irradiation
Method: as §1, §2, §3, §4, §5, §6

U87MG cells [3] = assay: Lipid peroxidation (TBARS); type: cell-based, human; details: IC50 concentration, PDT, up to 24 h postirradiation, % of untreated control
Method: (§7) Further analysis was conducted to elucidate mitochondrial- or lysosomal-localization-dependent cell death mechanisms. For this purpose, lipid peroxidation, a major end product of ROS-mediated cellular damage, was assessed. […] Moreover, the pronounced rise in lipid peroxidation was predominantly evident during the 24 h resting stage rather than immediately after light exposure, as observed with NSeAze. The apparent increase in lipid peroxidation explains the damage to the membranous structures of cells, such as mitochondria, lysosomes, and plasma membranes (Figure a,b). This was further confirmed by the detection of free unsaturated lipid content of cells, which is released upon disruption of the membranous structures.
(§8) Determination of lipid peroxidation
(§9) The effect of NSeMorph and NSeAze on lipid peroxidation was investigated using thiobarbituric acid reactive substances (TBARS) method,1 which is based on measuring malondialdehyde (MDA) levels, the end-product of lipid peroxidation. For this purpose, cells were seeded in 6-well plates at a density of 1 × 10^6 cells/well and incubated overnight. Afterwards, both compounds were administered in IC50 values according to the above-mentioned PDT protocol. The resulting lipid peroxidation was measured following the immediate irradiation and after 24 h of resting stage. After the indicated time periods, cells were harvested and lysed with a RIPA cell lysis buffer (Merck, Germany). The lysates were then prepared according to the TBARS assay protocol. Briefly, the samples were mixed with 0.8% thiobarbituric acid prepared in 20% trichloroacetic acid solution and then incubated for 2 h at 95 °C. Absorbance of the resulting pink-to-red color was measured at 532 nm with a spectrophotometer (Thermo, Germany). Data were expressed as % compared to untreated control group and normalized to cell viability rates (n=6). […]

U118MG cells [4] = assay: Lipid peroxidation (TBARS); type: cell-based, human; details: IC50 concentration, PDT, up to 24 h postirradiation, % of untreated control
Method: as §7, §8, §9

[5] = Absorption and emission spectra, fluorescence quantum yield; type: physicochemical; details: for ε (M^–1 cm^–1) / λabs (nm) / λems (nm): In PBS (pH 7.4, 1% DMSO); for φF (%) fluorescence quantum yield: Reference: methylene blue in MeOH (φF = 23%)
Method: First, the absorption and emission spectra of both PSs, NSeMorph and NSeAze, were recorded in PBS buffer (pH 7.4, 1% DMSO).
Photophysical Characterization
Fluorescence Quantum Yield
Fluorescence quantum yields of the samples were investigated using a fluorescence spectrometer (FLS 1000, Edinburgh Instruments) equipped with an integrating sphere accessory. A continuous-wave xenon lamp served as the excitation source, and the emitted fluorescence was detected with a standard photomultiplier (PMT-900) covering a wavelength range of 200-800 nm. During measurements, the PMT was cooled to - 20 °C using a built-in housing to reduce undesired dark current noise.
For quantum yield measurement, an integrating sphere (Edinburgh Instruments) was placed inside the spectrometer's sample compartment. The internal cavity of the sphere was coated with a PTFE-like material, enabling a reflectance of approximately […]
respectively. The sphere had two ports positioned 90° apart. The excitation beam was directed to the sample through the excitation port, and the fluorescence was collected from the emission port. The excitation port of the sphere included a lens to effectively focus the beam on the sample, while the emission port was an open aperture.
Prior to the experiments with the PSs, blank spectra were measured using the reference solvents (PBS, pH 7.4, 1% DMSO). For both measurements (blank and sample), two identical quartz cuvettes with equal volumes were used. Initially, the reference sample was placed inside the sphere, and the emission/excitation slits were adjusted to the excitation wavelength to ensure the PMT's response remained linear during measurements. To cover a scattering range, the emission scans started 20 nm below the actual excitation wavelengths and ended at 900 nm. Additionally, the step size and integration time of the measurements were set to 1 nm and 0.2 seconds, […]
Upon completing all emission measurements of the samples and references, the quantum yields of the samples were determined using the Fluoracle software. The built-in analysis tool calculates the quantum yield (QY) as: […]
where Es (EB) and Ss (SB) are the selected areas for the emitted and scattered signals

[6] = n-octanol/PBS distribution (LogP); type: physicochemical; details: Distribution coefficient in n-octanol/PBS solution

Structure (SMILES) | Cell death type (AO/EtBr) (U87MG cells [1]) | Cell death type (AO/EtBr) (U118MG cells [2]) | Lipid peroxidation (U87MG cells [3]) [%] | Lipid peroxidation (U118MG cells [4]) [%] | ε (M^–1 cm^–1) [5] | λabs (nm) [5] [nm] | λems (nm) [5] [nm] | φF (%) fluorescence quantum yield [5] [%] | logP [6]
c1cc2nc3ccc(=[N+]4CCC4)cc-3[se]c2cc1N1CCC1 [NSeAze] | early apoptosis | late apoptosis/necrosis | 309.64 ± 13.20 | 245.24 ± 5.92 | 15,300 M^–1 cm^–1 | 671 | 695 | 8.2 | 0.81
c1cc2nc3ccc(=[N+]4CCOCC4)cc-3[se]c2cc1N1CCOCC1 [NSeMorph] | early apoptosis | early apoptotic pattern | 216.73 ± 3.98 | 244.22 ± 2.38 | 16,600 M^–1 cm^–1 | 671 | 717 | 1.1 | -0.42

Reference: PMC12648288, “Drastic Impact of Donor Substituents on Xanthenes in the PDT of Glioblastoma” (JACS Au, 2025)
